In BindingDB's records for doi:10.1021/jm300185p (Takeda Pharmaceutical, 2012):

Biological target: Mitogen-activated protein kinase kinase kinase 7 (TAK1 kinase) (Homo sapiens) (UniProt O43318)
Experiment: Inhibition of N-terminus FLAG-tagged TAK1 expressed in baculovirus expression system using [gamma-33P]-ATP measured after 60 mins by scintillation counting

Sequence of Mitogen-activated protein kinase kinase kinase 7 (TAK1 kinase) (Homo sapiens) (O43318 whole entry, looked up): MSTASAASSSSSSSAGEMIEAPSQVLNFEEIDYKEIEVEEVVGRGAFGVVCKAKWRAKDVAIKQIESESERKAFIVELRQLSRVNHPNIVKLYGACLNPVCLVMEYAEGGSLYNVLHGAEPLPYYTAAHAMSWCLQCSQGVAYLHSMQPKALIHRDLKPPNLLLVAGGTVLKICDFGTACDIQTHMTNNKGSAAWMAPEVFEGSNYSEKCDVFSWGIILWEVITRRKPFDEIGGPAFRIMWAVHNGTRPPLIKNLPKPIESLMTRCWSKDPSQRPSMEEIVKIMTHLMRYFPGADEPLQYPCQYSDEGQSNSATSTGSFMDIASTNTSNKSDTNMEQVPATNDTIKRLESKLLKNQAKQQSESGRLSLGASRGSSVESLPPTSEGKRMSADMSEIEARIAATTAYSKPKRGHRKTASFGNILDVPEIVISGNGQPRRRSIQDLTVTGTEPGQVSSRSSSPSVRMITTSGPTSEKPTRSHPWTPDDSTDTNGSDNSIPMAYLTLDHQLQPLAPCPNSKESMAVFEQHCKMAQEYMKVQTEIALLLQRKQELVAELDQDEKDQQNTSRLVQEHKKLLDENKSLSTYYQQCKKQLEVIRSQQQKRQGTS

CC(C)(N)C(=O)NCCn1ccc2ncnc(Nc3ccc(Oc4cccc5sncc45)c(Cl)c3)c21 was tested, and the IC50 was > 10 µM.
